Legend:
CGRP receptor = CGRP receptor (Homo sapiens, UniProt O60894+Q16602); experiment: TR-FRET cAMP accumulation, inhibition of agonist-induced cAMP in CGRP receptor-overexpressing cells; format: cell-based; settings: supplementary CSV; read-out: pIC50 CGRPR (converted)
Protocol: (§1) The ability of the compounds to inhibit cAMP production induced by an EC50 concentration of the maximum agonist activation (information previously published[34]) in GPCR/RAMP-overexpressing cells (i.e., AM2, CGRP cells) was evaluated using cAMP accumulation assays. Each compound was tested at 8 full-log concentrations (10^–11–10^–5 M) including a negative control (blank). The total cAMP was measured using the TR-FRET LANCE cAMP detection kit (PerkinElmer, AD0264), as described previously.[34] Briefly, frozen cells ([…]) were thawed and prepared in warm stimulation buffer (1× HBSS, 5 mM N-(2-hydroxyethyl)piperazine-N′-ethanesulfonic acid (HEPES), 0.5 mM IBMX, and 0.1% bovine serum albumin (BSA)). Alexa Fluor conjugated anti-cAMP (1:100 concentration) was then added to the cell suspension, and cells were plated (2500 cells, 6 μL) in a 384-well white opaque microtiter plate (OptiPlates, PerkinElmer, 6007299). […] Subsequently, a 12 μL detection mix (Europium-Chelate streptavidin/biotinylated cAMP) was added to stop the reaction and induce cell lysis. TR-FRET was detected after an hour of incubation by an EnSight multimode Plate reader (PerkinElmer) at 320/340 nm excitation and 615/665 nm emission. Data were normalized to agonist only and blank (stimulation buffer only) wells as 0 and 100% cAMP inhibition, respectively. […]

AM2 receptor = AM2 receptor (Homo sapiens, UniProt O60896+Q16602); experiment: TR-FRET cAMP accumulation, inhibition of agonist-induced cAMP in AM2 receptor-overexpressing cells; format: cell-based; settings: supplementary CSV; read-out: pIC50 AM2R (converted)
AM2 receptor, sequence (Q16602 23-461): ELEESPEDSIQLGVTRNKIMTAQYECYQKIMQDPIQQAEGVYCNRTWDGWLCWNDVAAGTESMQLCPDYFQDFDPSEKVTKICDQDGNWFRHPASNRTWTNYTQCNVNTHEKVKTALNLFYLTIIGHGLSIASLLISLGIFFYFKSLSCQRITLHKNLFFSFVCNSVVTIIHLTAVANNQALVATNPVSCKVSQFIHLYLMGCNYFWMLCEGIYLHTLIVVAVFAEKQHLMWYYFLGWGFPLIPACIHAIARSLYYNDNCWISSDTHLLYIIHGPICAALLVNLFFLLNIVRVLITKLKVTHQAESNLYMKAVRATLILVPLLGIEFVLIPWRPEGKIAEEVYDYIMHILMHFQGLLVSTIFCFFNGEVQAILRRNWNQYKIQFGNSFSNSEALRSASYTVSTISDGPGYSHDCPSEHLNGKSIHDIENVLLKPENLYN
AM2 receptor, sequence (O60896 24-148): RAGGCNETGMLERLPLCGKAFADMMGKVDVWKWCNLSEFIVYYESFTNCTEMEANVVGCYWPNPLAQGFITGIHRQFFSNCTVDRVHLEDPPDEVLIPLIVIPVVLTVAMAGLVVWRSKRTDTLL
Protocol: as §1

AM1 receptor = target: T1, AM1 receptor (Homo sapiens, UniProt O60895+Q16602); experiment: TR-FRET cAMP accumulation, AM1 receptor cross-screen; format: cell-based; settings: Table 2; read-out: pIC50 AM1 (converted)
T1 construct: expressed in transfected cells; host or cells: GPCR/RAMP-overexpressing cells; the AM1 line itself is not described
T1 sequence (Q16602 23-461): as the sequence (Q16602 23-461) above
T1 sequence (O60895 43-175): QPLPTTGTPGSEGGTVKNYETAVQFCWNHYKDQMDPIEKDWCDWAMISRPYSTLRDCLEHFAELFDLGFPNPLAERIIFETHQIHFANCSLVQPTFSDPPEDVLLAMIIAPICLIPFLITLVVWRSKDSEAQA
Protocol: The ability of the compounds to inhibit cAMP production induced by an EC50 concentration of the maximum agonist activation (information previously published[34]) in GPCR/RAMP-overexpressing cells (i.e., AM2, CGRP cells) was evaluated using cAMP accumulation assays. Each compound was tested at 8 full-log concentrations (10^–11–10^–5 M) including a negative control (blank). The total cAMP was measured using the TR-FRET LANCE cAMP detection kit (PerkinElmer, AD0264), as described previously.[34] Briefly, frozen cells ([…]) were thawed and prepared in warm stimulation buffer (1× HBSS, 5 mM N-(2-hydroxyethyl)piperazine-N′-ethanesulfonic acid (HEPES), 0.5 mM IBMX, and 0.1% bovine serum albumin (BSA)). Alexa Fluor conjugated anti-cAMP (1:100 concentration) was then added to the cell suspension, and cells were plated (2500 cells, 6 μL) in a 384-well white opaque microtiter plate (OptiPlates, PerkinElmer, 6007299). […] Subsequently, a 12 μL detection mix (Europium-Chelate streptavidin/biotinylated cAMP) was added to stop the reaction and induce cell lysis. TR-FRET was detected after an hour of incubation by an EnSight multimode Plate reader (PerkinElmer) at 320/340 nm excitation and 615/665 nm emission. Data were normalized to agonist only and blank (stimulation buffer only) wells as 0 and 100% cAMP inhibition, respectively.
The final DMSO concentration was below 0.5%, and this was kept consistent in all of the wells, including agonist alone and blank. The same methodology including the number of cells was used for all cell lines. […] No further constraints in any parameters of the curves were used.

CGRP = test system: CGRP; design: method as in PMID 24900170, PMID 16161996; settings: cited from earlier work
MDA-MB-231 tumor = experiment: Subcutaneous MDA-MB-231 xenograft in BALB/c nude mice; format: in vivo
Protocol: The study was performed using 6–7 week old BALB/c nude female mice, with a weight range of 15–20 g. Animals were provided by Envigo Corporation (Cambridgeshire, U.K.) or Charles River Laboratories (Massachusetts) depending on availability. Each experiment started with 10 mice (experimental units) in each experimental/control group. Subsequent analysis (tumor growth and histology) was only performed in animals where tumors had established and were palpable within 3 days of implantation. This was in accordance with the power calculation performed to ensure robust statistical analysis by the University of Sheffield Statistical Service. The animals were housed in individually ventilated cages (with the appropriate bedding and flooring conditions) in environmentally controlled conditions with a 12 h light/dark cycles at ∼26 °C. Mice had access to an adequate amount of water and a 2018 Teklad Global 18% Protein Rodent Diet containing 1.01% calcium (Harlan Laboratories, U.K.). The day-to-day care of the animals was carried out by the technicians in the Biological Services (The University of Sheffield, U.K.). All scientific procedures on animals were carried under the U.K. Home Office Project Licenses (40/3499) and Procedure Individual Licenses.
Compounds were dissolved in DMSO (Sigma-Aldrich, D4540) and sonicated at 37 °C for 10 min. The appropriate volume of solvent (Kolliphor HS15 (1 part, grams), Kollisolv PEG E 400 (3 parts, mL), and PBS (6 parts, mL)) was then added to yield a 6% DMSO/94% solvent solution. These working stocks (8 mg/mL) were further sonicated at 37 °C for 10 min before storing at −20 °C. To make treatment aliquots, equal amounts of the working stock (or vehicle control) and solvent were mixed and sonicated at 37 °C for 10 min (4 mg/mL, equivalent to 20 mg/kg, 3% DMSO/97% solvent). Vehicle control and compounds were sonicated at 37 °C for 10 min prior to ip injections (200 μL per mouse).
Cells were prepared according to standard cell culture techniques. Cell pellets were resuspended in 50% PBS/50% Matrigel (Corning, 354234). Matrigel/PBS cell suspension, needles (25G), and syringes (1 mL) were kept on ice before and during tumor inoculation into mice. Cell suspension (100 μL, 5 × 10^6 cells) was injected subcutaneously into the left flank of 6–7 weeks old female immunodeficient nude athymic mice (BALB/c nude). Once the tumors became palpable (around 100 mm^3), mice were randomized into treatment groups. Mice were treated daily at the same time of the day with an ip injection of 20 mg/kg of compound or vehicle control (200 μL per mouse) until humane end point. […] Tumor size and mouse weights were measured twice a week. At the end of each study, the animals were euthanized following the appropriate procedures listed in the ASPA Act 1986. Vital organs and tumors were stored in 10% neutral-buffered formalin for further histological analysis. The primary experimental outcome was tumor volume. The percentage tumor volume was calculated by normalizing measured tumor volumes to the initial tumor volume prior to the start of treatment on day 5. Simple linear regression was done to compare the line of best fit between the growth curves. Blinding was not used for the in vivo studies.

MDA-MB-231 cells = experiment: Real-Time-Glo MT viability assay; format: cell-based, human; settings: 10 μM, daily treatment, after 3 days, versus vehicle-treated controls
Protocol: Cell viability in human breast cancer cells (MDA-MB-231) was quantified using Real-Time-Glo MT Cell Viability Assay (Promega, G9712) as previously described.[34] Cells (2000 cells) were seeded into 96-well white clear-bottom plates (Corning, 3903) in full serum media overnight before washing and changing to suboptimal media (RPMI + 5% FBS + 1% P/S) containing Real-Time-Glo reagents according to the Promega protocol. A baseline luminescence read (prior to treatment) was taken using an EnSight Multimode Plate Reader (PerkinElmer) after an hour of incubation at 37 °C. Cells were then treated with compounds or vehicle control (PBS + 0.05% DMSO) daily. Results were normalized to vehicle-treated controls as 100% viable (Graphpad Prism 7 and 8).

CGRP receptor, sequence (Q16602 23-461): as the sequence (Q16602 23-461) above
CGRP receptor, sequence (O60894 27-148): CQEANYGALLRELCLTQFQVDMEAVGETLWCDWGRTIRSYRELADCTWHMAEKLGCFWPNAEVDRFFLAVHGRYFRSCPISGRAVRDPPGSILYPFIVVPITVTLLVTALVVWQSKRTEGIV

SMILES | IC50 (AM1 receptor) | also measured
CC(C)(C)C(=O)N(CC(=O)Nc1ccc2c(c1)CC1(C2)C(=O)Nc2ncccc21)Cc1ccccc1CNCc1ncc[nH]1 (stereo not shown) [Compound 23, N-(2-((((1H-Imidazol-2-yl)methyl)amino)methyl)benzyl)-N-(2-oxo-2-((2′-oxo-1,1′,2′,3-tetrahydrospiro[indene-2,3′-pyrrolo[2,3-b]pyridine]-5-yl)amino)ethyl)pivalamide] | – | IC50 (CGRP receptor): 0.00398 µM; IC50 (AM2 receptor): 0.251 µM
O=C(CN1C(=O)C2(CCCC2)NC[C@H]1c1cc(F)cc(F)c1)Nc1ccc2c(c1)C[C@@]1(C2)C(=O)Nc2ncccc21 [MK-3207] | – | CGRP potency (CGRP): 0.00012 µM
CC(C)(C)C(=O)N(CC(=O)Nc1ccc2c(c1)CC1(C2)C(=O)Nc2ncccc21)Cc1ccccc1CN (stereo not shown) [Compound 12, N-(2-(Aminomethyl)benzyl)-N-(2-oxo-2-((2′-oxo-1,1′,2′,3-tetrahydrospiro[indene-2,3′-pyrrolo[2,3-b]pyridin]-5-yl)amino)ethyl)pivalamide] | 7.94 µM | –
CNCc1ccccc1CN(CC(=O)Nc1ccc2c(c1)CC1(C2)C(=O)Nc2ncccc21)C(=O)C(C)(C)C (stereo not shown) [Compound 25] | 2 µM | tumor growth rates (MDA-MB-231 tumor; 20 mg/kg ip daily, simple linear regression, p < 0.001): significantly reduced; adverse effects (MDA-MB-231 tumor; 20 mg/kg ip once daily): No adverse effects were observed; body weight compared with vehicle-treated mice (MDA-MB-231 tumor; 20 mg/kg ip once daily): did not differ significantly; tolerability (MDA-MB-231 tumor; 20 mg/kg ip once daily): well tolerated; decrease of breast cancer xenograft tumor growth (MDA-MB-231 tumor; 20 mg/kg ip once daily, 4 weeks after treatment, versus vehicle): 47%; decrease of MDA-MB-231 viability (MDA-MB-231 cells): 55%
CC(C)(C)C(=O)N(CC(=O)Nc1ccc2c(c1)CC1(C2)C(=O)Nc2ncccc21)Cc1ccccn1 (stereo not shown) [Compound 5, N-(2-Oxo-2-((2′-oxo-1,1′,2′,3-tetrahydrospiro[indene-2,3′-pyrrolo[2,3-b]pyridin]-5-yl)amino)ethyl)-N-(pyridin-2-ylmethyl)pivalamide] | 50.1 µM | –
CC(C)(C)C(=O)N(CC(=O)Nc1ccc2c(c1)CC1(C2)C(=O)Nc2ncccc21)Cc1nccs1 (stereo not shown) [Compound 8, N-(2-Oxo-2-((2′-oxo-1,1′,2′,3-tetrahydrospiro[indene-2,3′-pyrrolo[2,3-b]pyridin]-5-yl)amino)ethyl)-N-(thiazol-2-ylmethyl)pivalamide] | 25.1 µM | –
CC(N)c1ccccc1CN(CC(=O)Nc1ccc2c(c1)CC1(C2)C(=O)Nc2ncccc21)C(=O)C(C)(C)C (racemic) [(±)-29, N-(2-(1-Aminoethyl)benzyl)-N-(2-oxo-2-((2′-oxo-1,1′,2′,3-tetrahydrospiro[indene-2,3′-pyrrolo[2,3-b]pyridin]-5-yl)amino)ethyl)pivalamide] | > 10 µM | –
CN1CCCC(CN(CC(=O)Nc2ccc3c(c2)CC2(C3)C(=O)Nc3ncccc32)C(=O)C(C)(C)C)C1 (racemic) [(±)-6, N-((1-Methylpiperidin-3-yl)methyl)-N-(2-oxo-2-((2′-oxo-1,1′,2′,3-tetrahydrospiro[indene-2,3′-pyrrolo[2,3-b]pyridin]-5-yl)amino)ethyl)pivalamide] | > 10 µM | –

Further lines, with some results ahead:

IC50 (AM1 receptor) | SMILES | also measured
1.26 µM | CC(C)(C)C(=O)N(CC(=O)Nc1ccc2c(c1)CC1(C2)C(=O)Nc2ncccc21)Cc1ccccc1CO (stereo not shown) [Compound 13, N-(2-(Hydroxymethyl)benzyl)-N-(2-oxo-2-((2′-oxo-1,1′,2′,3-tetrahydrospiro[indene-2,3′-pyrrolo[2,3-b]pyridin]-5-yl)amino)ethyl)pivalamide] | –
6.31 µM | CC(C)(C)C(=O)N(CC(=O)Nc1ccc2c(c1)CC1(C2)C(=O)Nc2ncccc21)Cc1ccccc1C(N)=O (stereo not shown) [Compound 15, 2-((N-(2-Oxo-2-((2′-oxo-1,1′,2′,3-tetrahydrospiro[indene-2,3′-pyrrolo[2,3-b]pyridin]-5-yl)amino)ethyl)pivalamido)methyl)benzamide] | –
3.16 µM | CC(C)(C)C(=O)N(CC(=O)Nc1ccc2c(c1)CC1(C2)C(=O)Nc2ncccc21)Cc1ccccc1CNC1CC1 (stereo not shown) [Compound 26, N-(2-((Cyclopropylamino)methyl)benzyl)-N-(2-oxo-2-((2′-oxo-1,1′,2′,3-tetrahydrospiro[indene-2,3′-pyrrolo[2,3-b]pyridin]-5-yl)amino)ethyl)pivalamide] | –
2 µM | CC(C)(C)C(=O)N(CC(=O)Nc1ccc2c(c1)CC1(C2)C(=O)Nc2ncccc21)Cc1ccccc1CN1CCC1 (stereo not shown) [Compound 27, N-(2-(Azetidin-1-ylmethyl)benzyl)-N-(2-oxo-2-((2′-oxo-1,1′,2′,3-tetrahydrospiro[indene-2,3′-pyrrolo[2,3-b]pyridine]-5-yl)amino)ethyl)pivalamide] | –
